What was measured:
[1] = biological target: T1, Rat recombinant α2,6(N)ST (Rattus norvegicus, UniProt P13721); test: Sialyltransferase assay with cloned α2,6(N)ST; type: biochemical; conditions: Table I; acceptor 7.5 mM; 100% = 43500 CPM (Galβ1,4GlcNAcβ-O—Al)
T1 construct: purchased Calbiochem
T1 sequence (P13721 1-403): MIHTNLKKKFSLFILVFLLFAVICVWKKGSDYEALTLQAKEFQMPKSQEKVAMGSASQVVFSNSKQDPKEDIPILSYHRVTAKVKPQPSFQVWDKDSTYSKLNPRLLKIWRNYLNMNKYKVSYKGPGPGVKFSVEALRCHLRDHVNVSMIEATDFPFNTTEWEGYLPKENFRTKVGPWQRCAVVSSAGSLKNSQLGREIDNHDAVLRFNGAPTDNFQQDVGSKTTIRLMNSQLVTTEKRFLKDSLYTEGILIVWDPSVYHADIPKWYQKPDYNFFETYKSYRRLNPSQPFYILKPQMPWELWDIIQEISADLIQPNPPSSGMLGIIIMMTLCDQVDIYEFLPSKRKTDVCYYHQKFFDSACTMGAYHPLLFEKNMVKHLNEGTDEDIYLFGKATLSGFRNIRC

[2] = test system: α1,2-L-FT of colon tumor CC9338; test: α1,2-L-FT assay, colon tumor extract; type: biochemical, human; conditions: 1 mg protein of the tissue extract
Procedure: Colon tumor tissue (CC9338) and breast tumor tissue (BC9400) were obtained during surgical procedures at Roswell Park Cancer Institute and stored frozen within 1 h at −70° C. The tissues were homogenized at 4° C. with 4 volumes of 0.1M Tris Maleate […] 0.1% NaN3 using kinematica. After adjusting the concentration of Triton X-100 to 2%, these homogenates were mixed in the cold room for 1 h using Speci-Mix (Thermolyne) and then centrifuged at 20,000 g for 1 h at 4° C. The clear fat-free supernatant was stored frozen at −20° C. until use. Aliquots of 10 μL from this extract were used in assays run in duplicates. Glycosyltransferase activity in cell lysate was determined by mixing the lysates with acceptor and radiolabeled donor (monosaccharide) under the reaction conditions detailed below, followed by separation of un-reacted donor from the radioactive product using anionic or hydrophobic chromatography. In all cases, the radioactive content of isolated products was determined by using 3a70 scintillation cocktail (Research Products International, Mount Prospect, Ill.) and a Beckman LS6500 scintillation counter. Controls for each assay contained the reaction mixture with everything except the acceptor. All assays were run in duplicate.
α1,2, α1,6-, α1,3- and α1,4-fucosyltransferase (FT) assay reactions were carried out for 2 h in a reaction mixture containing 50 mM Hepes buffer (pH 7.5), 5 mM MnCl2, 7 mM ATP, 3 mM NaN3, 3 mM synthetic acceptor or 40 μg of fetuin-based acceptor, 0.05 μCi GDP-[14C]Fuc (290 mCi/mmol) and 10 μl cell extract in a total volume of 20 μl [Chandrasekaran et al., 1996]. Sulfotransferase (Sulfo T) assay reactions took 2 h and required a mixture containing 100 mM Tris-maleate (pH 7.2), 5 mM Mg Acetate, 5 mM ATP, 10 mM NaF, 10 mM BAL, 7.5 mM acceptor, 0.5 μCi of [^35S]PAPS (specific activity 2.4 Ci/mmol) and 10 μl of cell extract in a total volume of 30 μl [Chandrasekaran et al., 2004].
Dowex-1-C1 or Sep-Pak C18 cartridges were used to isolate radiolabeled product from the reaction mixture. For GalT, GalNAc-T and FT assays, the incubation mixture was diluted with 1 ml water and passed through a 1 ml Dowex-1-C1 column [Chandrasekaran et al., 1996; Chandrasekaran et al., 2001]. The column was washed twice with 1 ml of water. The breakthrough and the water wash contained the [^14C]-galactosylated or [^14C]-fucosylated products formed with neutral acceptors. 3 ml of 0.1M NaCl was used to obtain [^14C]-fucosylated products from sialylated acceptors after water elution. For sialytransferase assays, the radioactive products from benzylglycosides were separated by hydrophobic chromatography on Sep-Pak C18 cartridge (Waters, Milford, Mass.), and elution of the product was done with 3 ml methanol [Palcic et al., 1988]. […]

Compound | Sialyltransferase activity (%) Cloned α2,6(N)ST [1] [%] | α1,2-L-FT activity: incorporation of radioactive sugar [2] [CPM × 10^−3]
C=CCO[C@H]1O[C@H](CO)[C@H](O)[C@H](O[C@@H]2O[C@H](CO)[C@H](O)[C@H](O)[C@H]2O)[C@H]1NC(C)=O [Galβ1,3GalNAcα-O—Al] | 0.2 | 36.8
CO[C@H]1[C@H](O[C@H]2[C@H](O)[C@@H](CO)OC(O)[C@@H]2NC(C)=O)O[C@H](CO)[C@H](O)[C@@H]1O (some centres unmarked) [2-O-MeGalβ1,3GlcNAc] | 3.7 | 
CO[C@H]1O[C@H](CO)[C@H](O)[C@H](O[C@@H]2O[C@H](CO)[C@H](O)[C@H](O[C@@H]3O[C@H](C)[C@H](O)[C@H](O)[C@H]3O)[C@H]2NC(C)=O)[C@H]1O [D-Fucβ1,3GalNAcβ1,3Galα-O-Me] | 2.5 | 89.8
CO[C@H]1O[C@H](CO)[C@H](O)[C@H](O[C@@H]2O[C@H](CO)[C@H](O)[C@H](O[C@@H]3O[C@H](CO)[C@H](O)[C@H](O)[C@H]3O)[C@H]2NC(C)=O)[C@H]1O [Galβ1,3GalNAcβ1,3Galα-O-Me] | 1.1 | 49.1
CO[C@H]1[C@H](O[C@H]2[C@H](O)[C@@H](NC(C)=O)C(O)O[C@@H]2CO)O[C@H](CO)[C@H](O)[C@@H]1O (some centres unmarked) [2-O-MeGalβ1,4GlcNAc] | 90.1 | 

Source: US20100221763A1, “Specific Acceptors for Transferases to Saccharides and Method for Obtaining and Using Same” (Health Research, Inc, priority 2005, published 2010)
